From the supplement of paper PMC10307832

Columns and labels:
Assay in all cases: relative viability (nuclei count vs DMSO), 5 days (fraction); higher = more cells survive
[1] = system: LU99A
In short: (§1)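 Medians of duplicate plates are given as relative viability. That measure is the nuclei count in treated wells divided by the count in vehicle wells. Counts were taken on 4× images of lung cancer cell lines in 1536-well plates, 5 days after pin-tool dosing the day after seeding with one drug alone or a fixed anchor-drug dose plus five library-drug doses (not always all listed) in √10 steps.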

[2] = system: RERF-LC-KJ
In short: as §1

[3] = system: SW 1573
In short: as §1

[4] = system: SK-MES-1
In short: as §1

[5] = system: NCI-H1734
In short: as §1

[6] = system: NCI-H727
In short: as §1

[7] = system: HCC-78
In short: as §1

[8] = system: NCI-H522
In short: as §1

[9] = system: NCI-H2126
In short: as §1

[10] = system: NCI-H1563
In short: as §1

[11] = system: BEN
In short: as §1

[12] = system: LK-2
In short: as §1

[13] = system: NCI-H1792
In short: as §1

[14] = system: LCLC-97TM1
In short: as §1

[15] = system: EKVX
In short: as §1

[16] = system: NCI-H1944
In short: as §1

[17] = system: EMC-BAC-2
In short: as §1

[18] = system: COR-L 105
In short: as §1

[19] = system: NCI-H358
In short: as §1

[20] = system: EPLC-272H
In short: as §1

[21] = system: HCC-827
In short: as §1

[22] = system: LOU-NH91
In short: as §1

[23] = system: NCI-H2087
In short: as §1

[24] = system: SW 900
In short: as §1

[25] = system: NCI-H1650
In short: as §1

## CCCCCCCCCCCC1=C(O)C(=O)C=C(O)C1=O [Embelin] + Cc1nc(Nc2ncc(C(=O)Nc3c(C)cccc3Cl)s2)cc(N2CCN(CCO)CC2)n1 [Dasatinib] (partner 0.075 µM)
[1]; first compound 0.08 µM
  relative viability: 0.572
[1]; first compound 0.8 µM
  relative viability: 0.759
[1]; first compound 2.53 µM
  relative viability: 0.643
[1]; first compound 8 µM
  relative viability: 0.515
[2]; first compound 0.08 µM
  relative viability: 0.82
[2]; first compound 0.8 µM
  relative viability: 0.983
[2]; first compound 2.53 µM
  relative viability: 0.81
[2]; first compound 8 µM
  relative viability: 0.704
[3]; first compound 0.08 µM
  relative viability: 0.406
[3]; first compound 0.8 µM
  relative viability: 0.637
[3]; first compound 2.53 µM
  relative viability: 0.458
[3]; first compound 8 µM
  relative viability: 0.725
[4]; first compound 0.08 µM
  relative viability: 0.372
[4]; first compound 0.8 µM
  relative viability: 0.466
[4]; first compound 2.53 µM
  relative viability: 0.321
[4]; first compound 8 µM
  relative viability: 0.361
[5]; first compound 0.08 µM
  relative viability: 0.424
[5]; first compound 0.8 µM
  relative viability: 0.53
[5]; first compound 2.53 µM
  relative viability: 0.514
[5]; first compound 8 µM
  relative viability: 0.419
[6]; first compound 0.08 µM
  relative viability: 0.318
[6]; first compound 0.8 µM
  relative viability: 0.411
[6]; first compound 2.53 µM
  relative viability: 0.492
[6]; first compound 8 µM
  relative viability: 0.375
[7]; first compound 0.08 µM
  relative viability: 0.373
[7]; first compound 0.8 µM
  relative viability: 0.44
[7]; first compound 2.53 µM
  relative viability: 0.353
[7]; first compound 8 µM
  relative viability: 0.451
[8]; first compound 0.08 µM
  relative viability: 0.849
[8]; first compound 0.8 µM
  relative viability: 0.914
[8]; first compound 2.53 µM
  relative viability: 1.02
[8]; first compound 8 µM
  relative viability: 0.859
[9]; first compound 0.08 µM
  relative viability: 0.615
[9]; first compound 0.8 µM
  relative viability: 0.684
[9]; first compound 2.53 µM
  relative viability: 0.714
[9]; first compound 8 µM
  relative viability: 0.502
[10]; first compound 0.08 µM
  relative viability: 0.475
[10]; first compound 0.8 µM
  relative viability: 0.447
[10]; first compound 2.53 µM
  relative viability: 0.405
[10]; first compound 8 µM
  relative viability: 0.387
[11]; first compound 0.08 µM
  relative viability: 0.355
[11]; first compound 0.8 µM
  relative viability: 0.359
[11]; first compound 2.53 µM
  relative viability: 0.259
[11]; first compound 8 µM
  relative viability: 0.362
[12]; first compound 0.08 µM
  relative viability: 0.26
[12]; first compound 0.8 µM
  relative viability: 0.427
[12]; first compound 2.53 µM
  relative viability: 0.304
[12]; first compound 8 µM
  relative viability: 0.237
[13]; first compound 0.08 µM
  relative viability: 0.771
[13]; first compound 0.8 µM
  relative viability: 0.803
[13]; first compound 2.53 µM
  relative viability: 0.792
[13]; first compound 8 µM
  relative viability: 0.867
[14]; first compound 0.08 µM
  relative viability: 1.05
[14]; first compound 0.8 µM
  relative viability: 0.668
[14]; first compound 2.53 µM
  relative viability: 0.916
[14]; first compound 8 µM
  relative viability: 0.912
[15]; first compound 0.08 µM
  relative viability: 0.564
[15]; first compound 0.8 µM
  relative viability: 0.724
[15]; first compound 2.53 µM
  relative viability: 0.576
[15]; first compound 8 µM
  relative viability: 0.555
[16]; first compound 0.08 µM
  relative viability: 0.2
[16]; first compound 0.8 µM
  relative viability: 0.221
[16]; first compound 2.53 µM
  relative viability: 0.245
[16]; first compound 8 µM
  relative viability: 0.195
[17]; first compound 0.08 µM
  relative viability: 0.304
[17]; first compound 0.8 µM
  relative viability: 0.46
[17]; first compound 2.53 µM
  relative viability: 0.341
[17]; first compound 8 µM
  relative viability: 0.291
[18]; first compound 0.08 µM
  relative viability: 0.339
[18]; first compound 0.8 µM
  relative viability: 0.544
[18]; first compound 2.53 µM
  relative viability: 0.355
[18]; first compound 8 µM
  relative viability: 0.33
[19]; first compound 0.08 µM
  relative viability: 0.205
[19]; first compound 0.8 µM
  relative viability: 0.136
[19]; first compound 2.53 µM
  relative viability: 0.171
[19]; first compound 8 µM
  relative viability: 0.162
[20]; first compound 0.08 µM
  relative viability: 0.393
[20]; first compound 0.8 µM
  relative viability: 0.469
[20]; first compound 2.53 µM
  relative viability: 0.442
[20]; first compound 8 µM
  relative viability: 0.277
[21]; first compound 0.08 µM
  relative viability: 0.333
[21]; first compound 0.8 µM
  relative viability: 0.406
[21]; first compound 2.53 µM
  relative viability: 0.404
[21]; first compound 8 µM
  relative viability: 0.321
[22]; first compound 0.08 µM
  relative viability: 0.567
[22]; first compound 0.8 µM
  relative viability: 0.624
[22]; first compound 2.53 µM
  relative viability: 0.561
[22]; first compound 8 µM
  relative viability: 0.531
[23]; first compound 0.08 µM
  relative viability: 0.877
[23]; first compound 0.8 µM
  relative viability: 1.19
[23]; first compound 2.53 µM
  relative viability: 1.06
[23]; first compound 8 µM
  relative viability: 0.913
[24]; first compound 0.08 µM
  relative viability: 0.666
[24]; first compound 0.8 µM
  relative viability: 0.571
[24]; first compound 2.53 µM
  relative viability: 0.546
[24]; first compound 8 µM
  relative viability: 0.57
[25]; first compound 0.08 µM
  relative viability: 0.348
[25]; first compound 0.8 µM
  relative viability: 0.408
[25]; first compound 2.53 µM
  relative viability: 0.337
[25]; first compound 8 µM
  relative viability: 0.315

## CCCCCCCCCCCC1=C(O)C(=O)C=C(O)C1=O [Embelin] + N=C(N)NC(=N)NCCc1ccccc1 [Phenformin] (partner 250 µM)
[1]; first compound 0.08 µM
  relative viability: 0.856
[1]; first compound 0.8 µM
  relative viability: 0.951
[1]; first compound 2.53 µM
  relative viability: 0.942
[1]; first compound 8 µM
  relative viability: 0.757
[2]; first compound 0.08 µM
  relative viability: 0.431
[2]; first compound 0.8 µM
  relative viability: 0.461
[2]; first compound 2.53 µM
  relative viability: 0.418
[2]; first compound 8 µM
  relative viability: 0.356
[3]; first compound 0.08 µM
  relative viability: 0.433
[3]; first compound 0.8 µM
  relative viability: 0.366
[3]; first compound 2.53 µM
  relative viability: 0.479
[3]; first compound 8 µM
  relative viability: 0.376
[4]; first compound 0.08 µM
  relative viability: 0.67
[4]; first compound 0.8 µM
  relative viability: 0.694
[4]; first compound 2.53 µM
  relative viability: 0.75
[4]; first compound 8 µM
  relative viability: 0.585
[5]; first compound 0.08 µM
  relative viability: 0.383
[5]; first compound 0.8 µM
  relative viability: 0.521
[5]; first compound 2.53 µM
  relative viability: 0.526
[5]; first compound 8 µM
  relative viability: 0.327
[6]; first compound 0.08 µM
  relative viability: 0.563
[6]; first compound 0.8 µM
  relative viability: 0.597
[6]; first compound 2.53 µM
  relative viability: 0.513
[6]; first compound 8 µM
  relative viability: 0.5
[7]; first compound 0.08 µM
  relative viability: 0.661
[7]; first compound 0.8 µM
  relative viability: 0.729
[7]; first compound 2.53 µM
  relative viability: 0.761
[7]; first compound 8 µM
  relative viability: 0.929
[8]; first compound 0.08 µM
  relative viability: 0.722
[8]; first compound 0.8 µM
  relative viability: 0.856
[8]; first compound 2.53 µM
  relative viability: 0.674
[8]; first compound 8 µM
  relative viability: 0.621
[9]; first compound 0.08 µM
  relative viability: 0.556
[9]; first compound 0.8 µM
  relative viability: 0.609
[9]; first compound 2.53 µM
  relative viability: 0.591
[9]; first compound 8 µM
  relative viability: 0.476
[10]; first compound 0.08 µM
  relative viability: 0.711
[10]; first compound 0.8 µM
  relative viability: 0.728
[10]; first compound 2.53 µM
  relative viability: 0.626
[10]; first compound 8 µM
  relative viability: 0.578
[11]; first compound 0.08 µM
  relative viability: 0.267
[11]; first compound 0.8 µM
  relative viability: 0.285
[11]; first compound 2.53 µM
  relative viability: 0.264
[11]; first compound 8 µM
  relative viability: 0.263
[12]; first compound 0.08 µM
  relative viability: 0.626
[12]; first compound 0.8 µM
  relative viability: 0.278
[12]; first compound 2.53 µM
  relative viability: 0.735
[12]; first compound 8 µM
  relative viability: 0.26
[13]; first compound 0.8 µM
  relative viability: 0.424
[13]; first compound 2.53 µM
  relative viability: 0.271
[13]; first compound 8 µM
  relative viability: 0.218
[14]; first compound 0.08 µM
  relative viability: 0.452
[14]; first compound 0.8 µM
  relative viability: 0.432
[14]; first compound 2.53 µM
  relative viability: 0.465
[14]; first compound 8 µM
  relative viability: 0.469
[15]; first compound 0.08 µM
  relative viability: 0.245
[15]; first compound 0.8 µM
  relative viability: 0.229
[15]; first compound 2.53 µM
  relative viability: 0.205
[15]; first compound 8 µM
  relative viability: 0.247
[16]; first compound 0.08 µM
  relative viability: 0.196
[16]; first compound 0.8 µM
  relative viability: 0.237
[16]; first compound 2.53 µM
  relative viability: 0.203
[16]; first compound 8 µM
  relative viability: 0.202
[17]; first compound 0.08 µM
  relative viability: 0.56
[17]; first compound 0.8 µM
  relative viability: 0.669
[17]; first compound 2.53 µM
  relative viability: 0.471
[17]; first compound 8 µM
  relative viability: 0.504
[18]; first compound 0.08 µM
  relative viability: 0.582
[18]; first compound 0.8 µM
  relative viability: 0.595
[18]; first compound 2.53 µM
  relative viability: 0.446
[18]; first compound 8 µM
  relative viability: 0.496
[19]; first compound 0.08 µM
  relative viability: 0.322
[19]; first compound 0.8 µM
  relative viability: 0.398
[19]; first compound 2.53 µM
  relative viability: 0.468
[19]; first compound 8 µM
  relative viability: 0.36
[20]; first compound 0.08 µM
  relative viability: 0.307
[20]; first compound 0.8 µM
  relative viability: 0.288
[20]; first compound 2.53 µM
  relative viability: 0.288
[20]; first compound 8 µM
  relative viability: 0.288
[21]; first compound 0.08 µM
  relative viability: 0.426
[21]; first compound 0.8 µM
  relative viability: 0.451
[21]; first compound 2.53 µM
  relative viability: 0.477
[21]; first compound 8 µM
  relative viability: 0.443
[22]; first compound 0.08 µM
  relative viability: 0.757
[22]; first compound 0.8 µM
  relative viability: 0.895
[22]; first compound 2.53 µM
  relative viability: 0.566
[22]; first compound 8 µM
  relative viability: 0.492
[23]; first compound 0.08 µM
  relative viability: 0.486
[23]; first compound 0.8 µM
  relative viability: 0.459
[23]; first compound 2.53 µM
  relative viability: 0.426
[23]; first compound 8 µM
  relative viability: 0.479
[24]; first compound 0.08 µM
  relative viability: 0.778
[24]; first compound 0.8 µM
  relative viability: 0.733
[24]; first compound 2.53 µM
  relative viability: 0.655
[24]; first compound 8 µM
  relative viability: 0.481
[25]; first compound 0.08 µM
  relative viability: 0.434
[25]; first compound 0.8 µM
  relative viability: 0.558
[25]; first compound 2.53 µM
  relative viability: 0.485
[25]; first compound 8 µM
  relative viability: 0.376
